{"source": "PubChem BioAssay AID1259407", "about": "(Chemical Carcinogenesis Research Information System (CCRIS), 2018)", "test_system": "CCRIS mutagenicity, Ames/micronucleus/aberration tests", "assay": "CCRIS mutagenicity studies", "conditions": "Test System: AMES SALMONELLA TYPHIMURIUM", "note": "Active and inactive are the calls of the source. No rule for the calls is given here."}
{"smiles": "CSCNc1ccccc1", "values": [{"measurement": "mutagenic call", "setting": "Strain/Indicator: TA100, Metabolic Activation: NONE, Method: SPOT TEST", "value": "active; positive"}, {"measurement": "mutagenic call", "setting": "Strain/Indicator: TA100, Metabolic Activation: RAT, LIVER, S-9, AROCLOR 1254, Method: SPOT TEST", "value": "active; positive"}, {"measurement": "mutagenic call", "setting": "Strain/Indicator: TA102, Metabolic Activation: NONE, Method: SPOT TEST", "value": "active; positive"}, {"measurement": "mutagenic call", "setting": "Strain/Indicator: TA102, Metabolic Activation: RAT, LIVER, S-9, AROCLOR 1254, Method: SPOT TEST", "value": "active; positive"}]}
{"smiles": "CCCCCCCCCCCCN(C)N=O", "values": [{"measurement": "mutagenic call", "setting": "Strain/Indicator: TA100, Metabolic Activation: RAT, LIVER, S-9, KC500 OR PHENOBARBITAL, Method: LIQUID SUSPENSION", "value": "active; positive"}]}
{"smiles": "Brc1c2ccccc2cc2c1ccc1ccccc12", "values": [{"measurement": "mutagenic call", "setting": "Strain/Indicator: TA100, Metabolic Activation: RAT, LIVER, S-9, PCB, Method: STANDARD PLATE", "value": "active; positive"}]}
{"smiles": "O=C(O)c1cc(Br)cc2cccnc12", "values": [{"measurement": "mutagenic call", "setting": "Strain/Indicator: TA98, Metabolic Activation: NONE, Method: STANDARD PLATE", "value": "inactive; negative"}, {"measurement": "mutagenic call", "setting": "Strain/Indicator: TA98, Metabolic Activation: RAT, LIVER, S-9, AROCLOR 1254, Method: STANDARD PLATE", "value": "inactive; negative"}, {"measurement": "mutagenic call", "setting": "Strain/Indicator: TA100, Metabolic Activation: NONE, Method: STANDARD PLATE", "value": "inactive; negative"}, {"measurement": "mutagenic call", "setting": "Strain/Indicator: TA100, Metabolic Activation: RAT, LIVER, S-9, AROCLOR 1254, Method: STANDARD PLATE", "value": "inactive; negative"}, {"measurement": "mutagenic call", "setting": "Strain/Indicator: TA1535, Metabolic Activation: NONE, Method: STANDARD PLATE", "value": "inactive; negative"}, {"measurement": "mutagenic call", "setting": "Strain/Indicator: TA1535, Metabolic Activation: RAT, LIVER, S-9, AROCLOR 1254, Method: STANDARD PLATE", "value": "inactive; negative"}, {"measurement": "mutagenic call", "setting": "Strain/Indicator: TA1537, Metabolic Activation: NONE, Method: STANDARD PLATE", "value": "inactive; negative"}, {"measurement": "mutagenic call", "setting": "Strain/Indicator: TA1537, Metabolic Activation: RAT, LIVER, S-9, AROCLOR 1254, Method: STANDARD PLATE", "value": "inactive; negative"}]}
